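Compound exposure: 48 hours, 5 concentrations, 96-well plates. GI50 is the concentration that inhibits growth by half.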 Calls of active or inactive are those of the source. No stated cut-off is given here; in the data, active = GI50 up to about 1.1 µM and inactive = higher.
How the values were obtained:
Test in all cases: NCI anticancer screen, dose series, 48 h
KM-20L2 = test system: KM-20L2
UO-31 = test system: UO-31
MOLT-4 = test system: MOLT-4
OVCAR-8 = test system: OVCAR-8
SK-MEL-28 = test system: SK-MEL-28
SK-OV-3 = test system: SK-OV-3
NCI-H522 = test system: NCI-H522
SW-620 = test system: SW-620
LXFL 529 = test system: LXFL 529
SR = test system: SR
NCI-H226 = test system: NCI-H226
SK-MEL-2 = test system: SK-MEL-2
SK-MEL-5 = test system: SK-MEL-5
HOP-18 = test system: HOP-18
HL-60 = test system: HL-60
HOP-92 = test system: HOP-92

Measured: GI50

Cc1ccc(NC(=O)CC2Sc3ccccc3NC2=O)cc1C (centres undefined)
inactive: KM-20L2 > 100 µM | UO-31 73.6 µM | MOLT-4 8.22 µM | OVCAR-8 46.8 µM | SK-MEL-28 > 100 µM | SK-OV-3 > 100 µM | NCI-H522 > 100 µM | SW-620 > 100 µM | LXFL 529 49 µM | SR > 100 µM | NCI-H226 57.9 µM | SK-MEL-2 > 100 µM | SK-MEL-5 41.4 µM | HOP-18 > 100 µM | HL-60 24.5 µM | HOP-92 26 µM

Cc1ccc(NC(=O)CCC(=O)C(C#N)c2ccccc2)cc1C (centres undefined)
inactive: KM-20L2 > 100 µM | UO-31 > 100 µM | MOLT-4 > 100 µM | OVCAR-8 > 100 µM | SK-OV-3 > 100 µM | NCI-H522 > 100 µM | SW-620 > 100 µM | LXFL 529 > 100 µM | NCI-H226 > 100 µM | SK-MEL-2 > 100 µM | SK-MEL-5 > 100 µM | HOP-18 > 100 µM | HL-60 > 100 µM | HOP-92 > 100 µM

Cc1cc(C)c2c(c1)CSCc1cc(C)cc(C)c1-2
inactive: KM-20L2 35.1 µM | UO-31 39.4 µM | MOLT-4 21.1 µM | OVCAR-8 33 µM | SK-MEL-28 1.72 µM | SK-OV-3 88.9 µM | NCI-H522 22.5 µM | SW-620 71.8 µM | LXFL 529 57.5 µM | SR 23.9 µM | NCI-H226 38.8 µM | SK-MEL-2 21.3 µM | SK-MEL-5 21.6 µM | HOP-18 37.6 µM | HL-60 21.1 µM

Nc1c(Cl)ncnc1NCCCNc1ncnc(Cl)c1N
inactive: KM-20L2 > 100 µM | UO-31 95.3 µM | MOLT-4 > 100 µM | OVCAR-8 > 100 µM | SK-MEL-28 > 100 µM | SK-OV-3 > 100 µM | NCI-H522 69.3 µM | SW-620 > 100 µM | LXFL 529 > 100 µM | SR > 100 µM | NCI-H226 > 100 µM | SK-MEL-2 > 100 µM | SK-MEL-5 > 100 µM | HOP-18 > 100 µM | HL-60 > 100 µM | HOP-92 > 100 µM

COc1cccc(NC(=O)/C(CS(=O)(=O)CCC(C(C)=O)C(C)=O)=N/NC(C)(C)C)c1
inactive: KM-20L2 > 100 µM | UO-31 > 100 µM | MOLT-4 > 100 µM | OVCAR-8 > 100 µM | SK-MEL-28 > 100 µM | SK-OV-3 > 100 µM | NCI-H522 > 100 µM | SW-620 > 100 µM | LXFL 529 > 100 µM | NCI-H226 > 100 µM | SK-MEL-2 > 100 µM | SK-MEL-5 > 100 µM | HOP-18 42.9 µM | HL-60 > 100 µM | HOP-92 > 100 µM

CC(OC1CC(=O)CC2C(=O)C=CC(=O)C12)c1ccccc1 (centres undefined)
inactive: KM-20L2 17.3 µM | UO-31 16 µM | MOLT-4 4.97 µM | OVCAR-8 15.3 µM | SK-MEL-28 20.8 µM | SK-OV-3 > 42.2 µM | NCI-H522 1.53 µM | SW-620 13.8 µM | LXFL 529 7.33 µM | SR 19.1 µM | NCI-H226 20 µM | SK-MEL-2 19.7 µM | SK-MEL-5 18.8 µM | HOP-18 18.2 µM | HL-60 3.25 µM | HOP-92 1.42 µM

NC(=S)Nc1nnc(-c2ccc(-c3nnc(NC(N)=S)o3)cc2)o1
inactive: KM-20L2 > 100 µM | UO-31 > 100 µM | MOLT-4 > 100 µM | OVCAR-8 > 100 µM | SK-MEL-28 > 100 µM | SK-OV-3 > 100 µM | NCI-H522 > 100 µM | SW-620 > 100 µM | LXFL 529 > 100 µM | NCI-H226 > 100 µM | SK-MEL-2 > 100 µM | SK-MEL-5 > 100 µM | HOP-18 > 100 µM | HL-60 > 100 µM | HOP-92 > 100 µM

COc1cc(C2C(Cl)C(=O)N2n2cnc3ccccc3c2=O)cc(OC)c1OC (centres undefined)
inactive: KM-20L2 64.3 µM | UO-31 > 100 µM | MOLT-4 59.2 µM | OVCAR-8 > 100 µM | SK-MEL-28 > 100 µM | SK-OV-3 > 100 µM | NCI-H522 > 100 µM | SW-620 60.3 µM | LXFL 529 > 100 µM | SR 31.2 µM | NCI-H226 > 100 µM | SK-MEL-2 > 100 µM | SK-MEL-5 > 100 µM | HOP-18 > 100 µM | HL-60 28.2 µM

Cc1ccc(S(=O)(=O)N/N=c2\c(C)c(C3=NS(=O)(=O)c4cc(S(N)(=O)=O)c(Cl)cc4N3)oc3c(Cl)cc(Cl)cc23)cc1
inactive: KM-20L2 > 100 µM | UO-31 > 100 µM | MOLT-4 > 100 µM | OVCAR-8 > 100 µM | SK-MEL-28 > 100 µM | SK-OV-3 > 100 µM | SW-620 6.87 µM | LXFL 529 > 100 µM | SR > 100 µM | NCI-H226 > 100 µM | SK-MEL-2 > 100 µM | SK-MEL-5 > 100 µM | HOP-18 45.3 µM | HL-60 > 100 µM | HOP-92 27.7 µM

CC(=O)Nc1ccc(-c2nnc(SCC(=O)Nc3cccc([N+](=O)[O-])c3)o2)cc1
inactive: KM-20L2 17.8 µM | UO-31 13.2 µM | MOLT-4 4.39 µM | OVCAR-8 16.2 µM | SK-MEL-28 16.5 µM | SK-OV-3 11.1 µM | NCI-H522 10.1 µM | SW-620 13.4 µM | LXFL 529 2.99 µM | SR 2.87 µM | NCI-H226 10.8 µM | SK-MEL-2 18.3 µM | SK-MEL-5 14 µM | HOP-18 21.1 µM | HL-60 10.6 µM | HOP-92 17.1 µM

CCCCCCCC(=O)OC[C@H](C[As](=O)(O)O)OC(=O)CCCCCCC
inactive: KM-20L2 16.6 µM | UO-31 2.27 µM | MOLT-4 2.15 µM | OVCAR-8 13.4 µM | SK-MEL-28 13.3 µM | SK-OV-3 15 µM | NCI-H522 1.42 µM | SW-620 7.26 µM | LXFL 529 9.55 µM | SR 3.05 µM | NCI-H226 5.9 µM | SK-MEL-5 13.6 µM | HOP-18 22 µM | HL-60 3.97 µM | HOP-92 14.4 µM

Cc1ccc(S(=O)(=O)OC2CSSCC2OS(=O)(=O)c2ccc(C)cc2)cc1 (centres undefined)
inactive: KM-20L2 14 µM | UO-31 15.2 µM | MOLT-4 2.59 µM | OVCAR-8 13.3 µM | SK-MEL-28 16.6 µM | SK-OV-3 20.5 µM | NCI-H522 10.9 µM | SW-620 14.4 µM | LXFL 529 11.4 µM | SR 7.69 µM | NCI-H226 17.9 µM | SK-MEL-2 15.7 µM | SK-MEL-5 15.7 µM | HOP-18 17.4 µM | HL-60 2.62 µM | HOP-92 11.4 µM

O=[N+]([O-])c1ccccc1S(=O)(=O)c1ccccc1
inactive: KM-20L2 > 100 µM | UO-31 28.2 µM | MOLT-4 > 100 µM | OVCAR-8 > 100 µM | SK-MEL-28 > 100 µM | SK-OV-3 > 100 µM | SW-620 > 100 µM | LXFL 529 > 100 µM | SR > 100 µM | NCI-H226 88.1 µM | SK-MEL-2 > 100 µM | SK-MEL-5 81.7 µM | HOP-18 > 100 µM | HL-60 31.2 µM | HOP-92 80.7 µM

Source: ChEMBL document CHEMBL1201862, “PubChem BioAssay data set” (2004)
